# Experiment: Dissolution of phenothiazine fixed bed in acetic acid (UV absorption at 390 nm)
# Format: physicochemical
# Settings: saturation concentration
# Source text: The dissolution of phenothiazine in acetic acid according to the process according to the invention was investigated by experiment. FIG. 2 illustrates the relevant experimental setup.
# A phenothiazine fixed bed is placed in a temperature-controllable chromatography column (Götec-Labor GmbH, Superformance 300-16, length 300 mm, internal diameter 16 mm, double-walled for thermostatting, 20 μm type F filter frit). Pump P-01 conveys acetic acid from the reservoir vessel through the fixed bed temperature-controlled to 20° C. into a waste vessel. Pump P-02 diverts a sample stream to the UV detector. The phenothiazine concentration is determined by absorption measurement at 390 nm. The detector is previously calibrated with a phenothiazine solution of known concentration.
# A first experiment was performed with a flow rate of 12.4 cm/min at a volume flow of 25.0 ml/min. […] The measured detector extinction (dashed) periodically deviates from the concentration at the bed outlet since to protect the measuring cell from solids particles the solution was not passed through the detector upon startup. In the further course of the experiment calibration solutions were passed through the detector as a control. The “corrected bed outlet concentration” (solid curve beginning at a concentration of 0.000) was calculated over the experimental duration via linear interpolation and extrapolation. […]
smiles,measurement,setting,value
c1ccc2c(c1)Nc1ccccc1S2 [phenothiazine],Max conc (phenothiazine),"Experiment 1, fixed bed thermostatted 20.0 °C, flow rate 12.4 cm/min, volume flow 25.0 ml/min",1.23 % by wt.
same,Max conc (phenothiazine),"Experiment 2, fixed bed thermostatted 20.0 °C, flow rate 11.0 cm/min, volume flow 22.2 ml/min",1.22 % by wt.

# Source: patent US11027245B1, “Process for continuous dissolution of a solid in a reaction medium” (Evonik Operations GmbH, priority 2017, dated 2021)
